In article PMC12322260, “Anticancer activity of triterpene glycosides from the sea star Solaster pacificus” (Scientific Reports, 2025):

Key:
PC3-DR cells [1] = experiment: cells; conditions: Homo sapiens, 48 h
Description: Viability was evaluated using MTT assay, and IC50s were calculated using GraphPad Prism software. Number of biological replicates n = 3. […] Cells (6 × 10^3 cells/well in 100 μL/well of media) were plated in 96-well plates. The plates were incubated overnight, and the medium was replaced with fresh medium containing drugs at the indicated concentrations. The plates were further incubated for 48 h, unless otherwise stated, the solution of MTT reagent in PBS was added to each well, and cells were incubated for another 2–4 h to form formazan crystals. Then the media was removed and the plates were dried overnight. 50 μL of DMSO was added to each well to dissolve the formazan crystals. The absorbance of each well was measured using an Infinite F200PRO reader (TECAN, Männedorf, Switzerland). The cell viability was estimated as an inhibition concentration (IC50), which was calculated using GraphPad Prism software v.9.1.1 (GraphPad Software, San Diego, CA, USA). IC₅₀ values were determined by fitting the data to a nonlinear regression model (log[inhibitor] versus normalized response—variable slope).

PNT2 cells = experiment: MTT cytotoxicity assay; type: cell-based, human; conditions: Homo sapiens; PNT2, 48 h, mean ± SD
Source text: (§1) The cell lines were purchased from ATCC (Manassas, VA, USA) or ECACC (Salisbury, UK). The following cell lines were used: Human prostate cancer cells LNCaP (ATCC; RRID:CVCL_0395), VCaP (ECACC; RRID:CVCL_2235), 22Rv1 (ATCC; RRID:CVCL_1045), PC3 (ATCC; RRID:CVCL_0035), and DU145 (ATCC; RRID:CVCL_0105); human prostate non-cancer cells PNT2 (ATCC; RRID:CVCL_2164) and RWPE-01 (ATCC; RRID:CVCL_3791). Human non-cancer embryonic kidney cells HEK293T (ECACC; RRID:CVCL_0063) and human fibroblast cells MRC-9 (ECACC; RRID:CVCL_2629). The docetaxel-resistant cells PC3-DR were generated by long-term treatment of human prostate cancer PC3 cells with sublethal concentrations of docetaxel as previously described[32] and were provided by Prof. Z. Culig (Innsbruck Medical University, Austria). All cell lines were recently authenticated by a commercial service (Multiplexion GmbH, Heidelberg, Germany) and were cultured as previously described[58],[59]. Cells were kept in culture for a maximum of three months and were routinely examined for bacterial, fungal, and mycoplasma infections.

DU145 cells = experiment: MTT cytotoxicity assay; type: cell-based, human; conditions: Homo sapiens, DU-145; DU145, 48 h, mean ± SD
Source text: as §1

PC3-DR cells [2] = experiment: MTT cytotoxicity assay; type: cell-based, human; conditions: Homo sapiens, 48 h, mean ± SD
Source text: as §1

MRC-9 cells = experiment: MTT cytotoxicity assay; type: cell-based, human; conditions: Homo sapiens, MRC9; MRC-9, 48 h, mean ± SD
Source text: as §1

LNCaP cells = experiment: MTT cytotoxicity assay; type: cell-based, human; conditions: Homo sapiens, 48 h, mean ± SD
Source text: as §1

RWPE-1 cells = experiment: MTT cytotoxicity assay; type: cell-based, human; conditions: Homo sapiens; RWPE-1, 48 h, mean ± SD
Source text: as §1

PC3 cells = experiment: MTT cytotoxicity assay; type: cell-based, human; conditions: Homo sapiens, PC-3; PC3, 48 h, mean ± SD
Source text: as §1

HEK293T cells = experiment: MTT cytotoxicity assay; type: cell-based, human; conditions: Homo sapiens, HEK-293T, 48 h, mean ± SD
Source text: as §1

22Rv1 cells = experiment: MTT cytotoxicity assay; type: cell-based, human; conditions: Homo sapiens; 22Rv1, 48 h, mean ± SD
Source text: as §1

VCaP cells = experiment: MTT cytotoxicity assay; type: cell-based, human; conditions: Homo sapiens, 48 h, mean ± SD
Source text: as §1

[3] = target: P-glycoprotein (P-gp) in PC3-DR cells (Homo sapiens, UniProt P08183); experiment: P-gp activity, calcein-AM assay; conditions: 30 min
Chain of P-glycoprotein (P-gp) in PC3-DR cells (P08183 whole entry): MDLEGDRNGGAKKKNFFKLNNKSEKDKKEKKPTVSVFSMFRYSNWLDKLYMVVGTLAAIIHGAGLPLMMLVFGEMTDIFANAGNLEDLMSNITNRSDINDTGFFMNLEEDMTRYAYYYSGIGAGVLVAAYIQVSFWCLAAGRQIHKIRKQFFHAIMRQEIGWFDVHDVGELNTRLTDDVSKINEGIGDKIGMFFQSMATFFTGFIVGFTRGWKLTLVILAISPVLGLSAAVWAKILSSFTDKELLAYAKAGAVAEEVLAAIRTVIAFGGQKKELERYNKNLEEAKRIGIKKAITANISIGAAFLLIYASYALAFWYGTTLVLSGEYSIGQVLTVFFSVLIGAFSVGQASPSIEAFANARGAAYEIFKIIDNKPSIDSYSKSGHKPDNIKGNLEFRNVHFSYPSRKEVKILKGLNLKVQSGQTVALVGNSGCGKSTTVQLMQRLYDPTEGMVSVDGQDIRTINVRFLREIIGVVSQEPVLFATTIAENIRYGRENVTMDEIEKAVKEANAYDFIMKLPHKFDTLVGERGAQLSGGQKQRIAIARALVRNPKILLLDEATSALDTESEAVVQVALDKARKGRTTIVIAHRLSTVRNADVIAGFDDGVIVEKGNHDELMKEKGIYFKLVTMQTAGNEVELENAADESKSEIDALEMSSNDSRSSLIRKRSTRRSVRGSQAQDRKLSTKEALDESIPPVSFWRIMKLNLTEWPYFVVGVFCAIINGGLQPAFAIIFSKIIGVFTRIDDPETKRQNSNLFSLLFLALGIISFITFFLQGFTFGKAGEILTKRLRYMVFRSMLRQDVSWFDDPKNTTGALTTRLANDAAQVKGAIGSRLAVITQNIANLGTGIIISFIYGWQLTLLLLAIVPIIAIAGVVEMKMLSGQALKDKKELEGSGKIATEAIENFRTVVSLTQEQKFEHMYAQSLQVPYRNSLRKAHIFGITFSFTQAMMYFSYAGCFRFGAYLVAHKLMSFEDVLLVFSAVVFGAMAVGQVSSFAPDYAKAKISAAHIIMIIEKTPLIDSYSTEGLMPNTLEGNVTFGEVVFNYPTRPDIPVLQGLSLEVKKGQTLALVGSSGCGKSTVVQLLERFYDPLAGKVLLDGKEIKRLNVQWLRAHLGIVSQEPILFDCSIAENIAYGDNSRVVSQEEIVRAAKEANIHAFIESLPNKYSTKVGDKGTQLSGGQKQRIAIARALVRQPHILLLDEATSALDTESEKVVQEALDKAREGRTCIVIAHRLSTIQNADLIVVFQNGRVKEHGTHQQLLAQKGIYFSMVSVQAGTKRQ
Source text: A major contributor to docetaxel resistance is P-glycoprotein (also known as P-gp, MDR1), known to be overexpressed in PC3-DR cells. P-glycoprotein is a molecular efflux pump that actively expels various xenobiotic agents, including docetaxel, from cancer cells. Increased P-gp expression correlates with an increased IC50 for docetaxel, signifying enhanced drug resistance. […] In this assay, the non-fluorescent calcein-AM passively diffuses into cells, where it is hydrolyzed by cellular esterases into fluorescent calcein. Both calcein and its precursor are P-gp substrates and are actively transported out of P-gp-highly expressing cells (e.g. PC3-DR cells), which results in reduced intracellular fluorescence. P-gp inhibitors, such as tariquidar, block P-gp function, leading to calcein accumulation and an increase in fluorescence, which therefore can be used as a reliable indicator of reduced P-gp activity. A similar fluorescence increase is observed in the presence of docetaxel due to its competitive binding to the P-gp transporter alongside calcein[38].
Number of biological replicates n = 3. […] Number of biological replicates n = 3.
The evaluation of the activity of P-glycoprotein (P-gp) was performed using calcein-AM assay as described previously. […] The plates were incubated for 15 min, and the green calcein fluorescence was recorded using an Infinite F200PRO plate reader (TECAN). […]

Compound `CO[C@@H]1[C@@H](O)[C@H](O[C@@H]2[C@@H](O)[C@H](O[C@H]3[C@H](O)[C@@H](O[C@@H]4OC[C@@H](O)[C@H](O)[C@H]4O)[C@H](O[C@H]4[C@H](O[C@H]5CC[C@]6(C)[C@@H]7CCC89C(=O)O[C@@](C)(/C=C\C=C(C)C)[C@H]8[C@@H](OC(C)=O)C[C@@]9(C)C7=CC[C@H]6C5(C)C)OC[C@@H](O)[C@@H]4O)O[C@@H]3C)O[C@H](CO)[C@H]2O)OC[C@H]1O` (stereo partly shown) [CuC1, cucumarioside C1] has an IC50 (PC3-DR cells [1]) of 5690 ± 330 nM, an IC50 (PNT2 cells) of 754 ± 58 nM and an IC50 (DU145 cells) of 3240 ± 340 nM. The IC50 (PC3-DR cells [2]) was 5690 ± 780 nM, the IC50 (MRC-9 cells) was 959 ± 248 nM and the IC50 (LNCaP cells) was 3000 ± 540 nM. It also gave an IC50 (RWPE-1 cells) of 554 ± 105 nM, an IC50 (PC3 cells) of 1590 ± 120 nM and an IC50 (HEK293T cells) of 660 ± 50 nM. For the same compound, the IC50 (22Rv1 cells) was 246 ± 17 nM, the IC50 (VCaP cells) was 472 ± 65 nM and the “P-gp activity (calcein-AM efflux)” value ([3]; glycosides at non-cytotoxic concentrations, controls TQD 50 nM, Doce 100 nM) was “did not result in any significant changes in calcein-AM efflux”. For the same compound, the intracellular calcein fluorescence ([3]; high cytotoxic concentrations) was “increase of intracellular fluorescence”.
